Measured values: PubChem BioAssay AID588377 (NMMLSC, 2011)
pEC50: −log10 of the molar value.

Biological target: Cell division control protein 42 homolog (Homo sapiens) (UniProt P60953)
Assay: wildtype Cdc42 GTP-binding inhibitors, SAR follow-up, biochemical, multiplex bead flow cytometry, round 1 (AID 588377)
Settings: GST-Cdc42 wt beads, fluorescent GTP binding

Cell division control protein 42 homolog (Homo sapiens), sequence (P60953 whole entry, looked up): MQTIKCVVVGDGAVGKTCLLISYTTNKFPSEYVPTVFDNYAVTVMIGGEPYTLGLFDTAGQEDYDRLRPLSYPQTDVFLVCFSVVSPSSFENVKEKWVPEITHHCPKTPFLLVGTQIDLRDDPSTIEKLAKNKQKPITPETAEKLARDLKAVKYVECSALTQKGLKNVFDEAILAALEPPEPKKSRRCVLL

| Compound | pEC50 |
| --- | --- |
| O=C(C#Cc1ccccc1)c1cccc([N+](=O)[O-])c1 | 5.40 |
| COc1ccc(C2CC(c3ccccc3)=NN2c2ccc(S(N)(=O)=O)cc2)cc1 (stereo not drawn) | 6.08 |
| NS(=O)(=O)c1ccc(N2N=C(c3ccccc3)CC2c2ccccc2)cc1 (stereo not drawn) | 5.38 |
